Results from ChEMBL document CHEMBL1155237, “Selective inhibitors of the mutant B-Raf pathway: discovery of a potent and orally bioavailable aminoisoquinoline” (J Med Chem, 2009).

How the values were obtained:
[1] = Oral bioavailability in CD1 mouse; assay type: ADME, organism-based; settings: in vivo
[2] = Elimination half life in Sprague-Dawley rat at 2 mg/kg, iv and 5 mg/kg, po; assay type: ADME, organism-based; settings: in vivo, read-out: beta t1/2 (converted)
[3] = biological target: Misshapen-like kinase 1 (Homo sapiens) (UniProt Q8N4C8); assay: Inhibition of MINK assessed as enzyme activity at 1 uM relative to untreated control; parameters: scale not given: the % may be the effect or the level left
[4] = biological target: Serine/threonine-protein kinase 3 (Homo sapiens) (UniProt Q13188); assay: Inhibition of MST2 assessed as enzyme activity at 1 uM relative to untreated control; parameters: scale not given: the % may be the effect or the level left
[5] = biological target: Serine/threonine-protein kinase Nek1 (Homo sapiens) (UniProt Q96PY6); assay: Inhibition of NEK1 assessed as enzyme activity at 1 uM relative to untreated control; parameters: scale not given: the % may be the effect or the level left
[6] = biological target: Mast/stem cell growth factor receptor Kit (Homo sapiens) (UniProt P10721); assay: Inhibition of KIT assessed as enzyme activity at 1 uM relative to untreated control; parameters: scale not given: the % may be the effect or the level left
[7] = tested on: Mast/stem cell growth factor receptor Kit (Homo sapiens), P10721 [V559D,T670I]; assay: Inhibition of KIT V559D,T670I mutant assessed as enzyme activity at 1 uM relative to untreated control; parameters: scale not given: the % may be the effect or the level left
[8] = tested on: Mast/stem cell growth factor receptor Kit (Homo sapiens), P10721 [V559D,V654A]; assay: Inhibition of KIT V559D,V654A mutant assessed as enzyme activity at 1 uM relative to untreated control; parameters: scale not given: the % may be the effect or the level left
[9] = biological target: Mitogen-activated protein kinase kinase kinase kinase 4 (Homo sapiens) (UniProt O95819); assay: Inhibition of MAP4K4 assessed as enzyme activity at 1 uM relative to untreated control; parameters: scale not given: the % may be the effect or the level left
[10] = biological target: MAP kinase-activated protein kinase 2 (Homo sapiens) (UniProt P49137); assay: Inhibition of MAPKAPK2 assessed as enzyme activity at 1 uM relative to untreated control; parameters: scale not given: the % may be the effect or the level left
[11] = biological target: Tyrosine-protein kinase Blk (Homo sapiens) (UniProt P51451); assay: Inhibition of BLK assessed as enzyme activity at 1 uM relative to untreated control; parameters: scale not given: the % may be the effect or the level left
Sequence of Tyrosine-protein kinase Blk (Homo sapiens) (P51451 2-505 limits assumed): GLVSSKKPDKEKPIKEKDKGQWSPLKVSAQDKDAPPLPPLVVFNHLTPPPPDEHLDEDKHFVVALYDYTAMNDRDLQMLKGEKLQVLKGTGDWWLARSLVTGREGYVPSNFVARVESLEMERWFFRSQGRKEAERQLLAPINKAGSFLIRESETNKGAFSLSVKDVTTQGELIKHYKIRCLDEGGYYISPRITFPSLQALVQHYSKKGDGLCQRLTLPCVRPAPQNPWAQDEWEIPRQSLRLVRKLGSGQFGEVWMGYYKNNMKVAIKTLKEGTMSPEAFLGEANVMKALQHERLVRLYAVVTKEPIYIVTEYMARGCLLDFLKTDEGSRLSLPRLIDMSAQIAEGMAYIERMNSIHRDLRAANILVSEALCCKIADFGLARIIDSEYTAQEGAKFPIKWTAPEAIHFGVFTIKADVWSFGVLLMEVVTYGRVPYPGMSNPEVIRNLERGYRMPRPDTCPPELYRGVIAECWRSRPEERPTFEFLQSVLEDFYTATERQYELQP

[12] = biological target: Serine/threonine-protein kinase BRSK2 (Homo sapiens) (UniProt Q8IWQ3); assay: Inhibition of BRSK2 assessed as enzyme activity at 1 uM relative to untreated control; parameters: scale not given: the % may be the effect or the level left
[13] = biological target: Calcium/calmodulin-dependent protein kinase type 1D (Homo sapiens) (UniProt Q8IU85); assay: Inhibition of CAMK1D assessed as enzyme activity at 1 uM relative to untreated control; parameters: scale not given: the % may be the effect or the level left
Sequence of Calcium/calmodulin-dependent protein kinase type 1D (Homo sapiens) (Q8IU85 whole entry, looked up, canonical isoform): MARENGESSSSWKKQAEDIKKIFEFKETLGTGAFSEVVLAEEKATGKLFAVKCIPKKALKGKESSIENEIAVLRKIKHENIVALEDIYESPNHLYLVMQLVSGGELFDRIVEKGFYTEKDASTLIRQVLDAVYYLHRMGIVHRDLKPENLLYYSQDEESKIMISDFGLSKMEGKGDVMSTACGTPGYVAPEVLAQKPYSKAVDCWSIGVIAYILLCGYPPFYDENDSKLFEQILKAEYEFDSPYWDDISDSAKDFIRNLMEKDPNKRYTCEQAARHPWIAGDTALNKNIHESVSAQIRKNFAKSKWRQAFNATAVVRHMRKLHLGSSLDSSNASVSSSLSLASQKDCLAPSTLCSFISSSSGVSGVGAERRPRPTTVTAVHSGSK

[14] = biological target: Casein kinase I isoform alpha-like (Homo sapiens) (UniProt Q8N752); assay: Inhibition of CSNK1A1L assessed as enzyme activity at 1 uM relative to untreated control; parameters: scale not given: the % may be the effect or the level left
[15] = biological target: cAMP-dependent protein kinase catalytic subunit PRKX (Homo sapiens) (UniProt P51817); assay: Inhibition of PRKX assessed as enzyme activity at 1 uM relative to untreated control; parameters: scale not given: the % may be the effect or the level left
Sequence of cAMP-dependent protein kinase catalytic subunit PRKX (Homo sapiens) (P51817 whole entry): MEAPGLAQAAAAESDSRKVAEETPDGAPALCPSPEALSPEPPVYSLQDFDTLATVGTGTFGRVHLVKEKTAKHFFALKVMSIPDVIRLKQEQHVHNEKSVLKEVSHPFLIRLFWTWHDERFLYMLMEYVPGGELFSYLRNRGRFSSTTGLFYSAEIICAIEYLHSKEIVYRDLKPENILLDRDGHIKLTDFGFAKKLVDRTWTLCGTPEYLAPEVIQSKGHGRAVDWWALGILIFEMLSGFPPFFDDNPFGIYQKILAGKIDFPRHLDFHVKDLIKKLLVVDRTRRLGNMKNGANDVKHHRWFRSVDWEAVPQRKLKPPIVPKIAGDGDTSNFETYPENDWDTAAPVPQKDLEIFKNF

[16] = tested on: Proto-oncogene tyrosine-protein kinase receptor Ret (Homo sapiens), P07949 [V804M]; assay: Inhibition of RET V804M mutant assessed as enzyme activity at 1 uM relative to untreated control; parameters: scale not given: the % may be the effect or the level left
[17] = biological target: Serine/threonine-protein kinase RIO1 (Homo sapiens) (UniProt Q9BRS2); assay: Inhibition of RIOK1 assessed as enzyme activity at 1 uM relative to untreated control; parameters: scale not given: the % may be the effect or the level left
[18] = biological target: Serine/threonine-protein kinase RIO3 (Homo sapiens) (UniProt O14730); assay: Inhibition of RIOK3 assessed as enzyme activity at 1 uM relative to untreated control; parameters: scale not given: the % may be the effect or the level left
[19] = biological target: Receptor-interacting serine/threonine-protein kinase 1 (Homo sapiens) (UniProt Q13546); assay: Inhibition of RIPK1 assessed as enzyme activity at 1 uM relative to untreated control; parameters: scale not given: the % may be the effect or the level left
[20] = biological target: Serine/threonine-protein kinase SIK2 (Homo sapiens) (UniProt Q9H0K1); assay: Inhibition of SNF1LK2 assessed as enzyme activity at 1 uM relative to untreated control; parameters: scale not given: the % may be the effect or the level left
[21] = tested on: Receptor-type tyrosine-protein kinase FLT3 (Homo sapiens), P36888 [D835Y]; assay: Inhibition of FLT3 D835Y mutant assessed as enzyme activity at 1 uM relative to untreated control; parameters: scale not given: the % may be the effect or the level left
[22] = tested on: Receptor-type tyrosine-protein kinase FLT3 (Homo sapiens), P36888 [K663Q]; assay: Inhibition of FLT3 K663Q mutant assessed as enzyme activity at 1 uM relative to untreated control; parameters: scale not given: the % may be the effect or the level left
[23] = biological target: Tyrosine-protein kinase FRK (Homo sapiens) (UniProt P42685); assay: Inhibition of FRK assessed as enzyme activity at 1 uM relative to untreated control; parameters: scale not given: the % may be the effect or the level left
Sequence of Tyrosine-protein kinase FRK (Homo sapiens) (P42685 whole entry): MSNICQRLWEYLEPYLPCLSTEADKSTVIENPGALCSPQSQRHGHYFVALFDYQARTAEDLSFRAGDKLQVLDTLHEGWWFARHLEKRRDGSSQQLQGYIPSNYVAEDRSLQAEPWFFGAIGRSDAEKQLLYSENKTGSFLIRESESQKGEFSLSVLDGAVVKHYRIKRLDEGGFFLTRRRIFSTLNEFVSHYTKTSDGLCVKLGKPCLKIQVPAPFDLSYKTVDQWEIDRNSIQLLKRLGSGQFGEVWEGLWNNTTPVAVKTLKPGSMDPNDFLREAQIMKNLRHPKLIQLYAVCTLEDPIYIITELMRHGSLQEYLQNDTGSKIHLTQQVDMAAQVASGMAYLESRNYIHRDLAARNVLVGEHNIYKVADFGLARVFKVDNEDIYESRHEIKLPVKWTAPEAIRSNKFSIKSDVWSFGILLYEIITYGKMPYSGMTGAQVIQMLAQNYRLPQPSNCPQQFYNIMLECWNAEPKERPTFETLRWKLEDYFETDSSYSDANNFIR

[24] = biological target: Glycogen synthase kinase-3 alpha (Homo sapiens) (UniProt P49840); assay: Inhibition of GSK3A assessed as enzyme activity at 1 uM relative to untreated control; parameters: scale not given: the % may be the effect or the level left
Sequence of Glycogen synthase kinase-3 alpha (Homo sapiens) (P49840 2-483 limits assumed): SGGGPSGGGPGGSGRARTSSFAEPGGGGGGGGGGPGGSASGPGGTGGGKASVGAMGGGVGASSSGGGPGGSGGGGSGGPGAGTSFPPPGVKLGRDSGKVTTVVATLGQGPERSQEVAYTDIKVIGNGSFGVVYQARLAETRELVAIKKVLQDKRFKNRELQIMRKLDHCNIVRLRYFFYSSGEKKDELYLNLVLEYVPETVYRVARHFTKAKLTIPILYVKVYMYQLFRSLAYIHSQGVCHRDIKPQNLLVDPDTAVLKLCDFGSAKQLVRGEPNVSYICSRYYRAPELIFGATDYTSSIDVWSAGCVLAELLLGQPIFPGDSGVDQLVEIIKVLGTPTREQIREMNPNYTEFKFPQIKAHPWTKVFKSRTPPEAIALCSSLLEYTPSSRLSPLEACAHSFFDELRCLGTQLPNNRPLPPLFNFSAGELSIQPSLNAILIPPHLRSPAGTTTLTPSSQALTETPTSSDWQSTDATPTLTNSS

[25] = biological target: Insulin receptor (Homo sapiens) (UniProt P06213); assay: Inhibition of INSR assessed as enzyme activity at 1 uM relative to untreated control; parameters: scale not given: the % may be the effect or the level left
[26] = biological target: Insulin receptor-related protein (Homo sapiens) (UniProt P14616); assay: Inhibition of INSRR assessed as enzyme activity at 1 uM relative to untreated control; parameters: scale not given: the % may be the effect or the level left
[27] = biological target: Tyrosine-protein kinase JAK1 (Homo sapiens) (UniProt P23458); assay: Inhibition of JAK1 kinase domain 2 assessed as enzyme activity at 1 uM relative to untreated control; parameters: scale not given: the % may be the effect or the level left
[28] = biological target: Death-associated protein kinase 1 (Homo sapiens) (UniProt P53355); assay: Inhibition of DAPK1 assessed as enzyme activity at 1 uM relative to untreated control; parameters: scale not given: the % may be the effect or the level left
Sequence of Death-associated protein kinase 1 (Homo sapiens) (P53355 whole entry, looked up): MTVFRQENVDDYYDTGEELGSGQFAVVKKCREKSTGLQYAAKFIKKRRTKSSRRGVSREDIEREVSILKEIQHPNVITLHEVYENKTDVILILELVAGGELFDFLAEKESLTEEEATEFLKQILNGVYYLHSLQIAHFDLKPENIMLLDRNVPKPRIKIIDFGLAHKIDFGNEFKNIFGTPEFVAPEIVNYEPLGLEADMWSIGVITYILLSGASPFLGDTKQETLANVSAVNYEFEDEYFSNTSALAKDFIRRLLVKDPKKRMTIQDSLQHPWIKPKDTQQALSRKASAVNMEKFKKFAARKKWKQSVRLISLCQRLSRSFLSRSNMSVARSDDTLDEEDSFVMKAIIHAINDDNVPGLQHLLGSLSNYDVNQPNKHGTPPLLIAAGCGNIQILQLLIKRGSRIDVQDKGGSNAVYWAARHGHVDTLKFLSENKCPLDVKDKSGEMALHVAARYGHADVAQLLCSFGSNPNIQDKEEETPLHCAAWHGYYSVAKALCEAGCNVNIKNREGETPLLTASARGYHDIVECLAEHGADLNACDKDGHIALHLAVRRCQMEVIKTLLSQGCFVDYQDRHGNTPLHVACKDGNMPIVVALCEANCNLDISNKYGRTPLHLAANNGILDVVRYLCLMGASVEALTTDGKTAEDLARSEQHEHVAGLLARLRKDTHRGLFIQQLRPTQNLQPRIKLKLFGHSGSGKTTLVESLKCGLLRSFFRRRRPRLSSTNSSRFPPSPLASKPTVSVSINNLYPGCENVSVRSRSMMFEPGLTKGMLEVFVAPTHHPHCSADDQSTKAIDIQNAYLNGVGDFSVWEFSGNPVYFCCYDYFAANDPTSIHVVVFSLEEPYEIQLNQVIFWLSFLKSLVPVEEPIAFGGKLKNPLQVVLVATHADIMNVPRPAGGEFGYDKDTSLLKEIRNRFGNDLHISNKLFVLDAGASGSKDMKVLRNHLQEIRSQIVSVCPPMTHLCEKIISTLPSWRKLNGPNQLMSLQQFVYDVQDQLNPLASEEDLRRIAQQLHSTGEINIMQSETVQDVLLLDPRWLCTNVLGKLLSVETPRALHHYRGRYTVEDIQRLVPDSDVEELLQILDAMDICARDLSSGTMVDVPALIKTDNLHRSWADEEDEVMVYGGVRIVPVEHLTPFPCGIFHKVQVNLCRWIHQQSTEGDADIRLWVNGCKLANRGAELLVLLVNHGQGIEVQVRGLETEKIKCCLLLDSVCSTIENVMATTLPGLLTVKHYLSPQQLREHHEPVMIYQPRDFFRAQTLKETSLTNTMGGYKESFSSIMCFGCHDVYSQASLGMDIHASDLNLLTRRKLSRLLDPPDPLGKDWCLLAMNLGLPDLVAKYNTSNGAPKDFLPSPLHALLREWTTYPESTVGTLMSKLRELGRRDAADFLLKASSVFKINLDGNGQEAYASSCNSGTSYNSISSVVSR

[29] = tested on: Epidermal growth factor receptor (Homo sapiens), P00533 [G719S]; assay: Inhibition of EGFR G719S mutant assessed as enzyme activity at 1 uM relative to untreated control; assay type: protein assay; parameters: scale not given: the % may be the effect or the level left
[30] = biological target: Serine/threonine-protein kinase 33 (Homo sapiens) (UniProt Q9BYT3); assay: Inhibition of STK33 assessed as enzyme activity at 1 uM relative to untreated control; parameters: scale not given: the % may be the effect or the level left
A-375 = assay: Antitumor activity against human A375 SQ2 cells xenografted in po dosed CD1 mouse assessed as inhibition of tumor growth administered once daily for 14 days; assay type: functional; settings: 336 h
[31] = AUC (0 to 24 hrs) in human A375 SQ2 cells xenografted po dosed CD1 mouse administered once daily for 14 days; assay type: ADME, organism-based, A-375; parameters: time < 24 hr, route oral; settings: in vivo
[32] = biological target: Protein kinase C delta type (Homo sapiens) (UniProt Q05655); assay: Inhibition of PRKCdelta assessed as enzyme activity at 1 uM relative to untreated control; parameters: scale not given: the % may be the effect or the level left
Sequence of Protein kinase C delta type (Homo sapiens) (Q05655 whole entry, looked up): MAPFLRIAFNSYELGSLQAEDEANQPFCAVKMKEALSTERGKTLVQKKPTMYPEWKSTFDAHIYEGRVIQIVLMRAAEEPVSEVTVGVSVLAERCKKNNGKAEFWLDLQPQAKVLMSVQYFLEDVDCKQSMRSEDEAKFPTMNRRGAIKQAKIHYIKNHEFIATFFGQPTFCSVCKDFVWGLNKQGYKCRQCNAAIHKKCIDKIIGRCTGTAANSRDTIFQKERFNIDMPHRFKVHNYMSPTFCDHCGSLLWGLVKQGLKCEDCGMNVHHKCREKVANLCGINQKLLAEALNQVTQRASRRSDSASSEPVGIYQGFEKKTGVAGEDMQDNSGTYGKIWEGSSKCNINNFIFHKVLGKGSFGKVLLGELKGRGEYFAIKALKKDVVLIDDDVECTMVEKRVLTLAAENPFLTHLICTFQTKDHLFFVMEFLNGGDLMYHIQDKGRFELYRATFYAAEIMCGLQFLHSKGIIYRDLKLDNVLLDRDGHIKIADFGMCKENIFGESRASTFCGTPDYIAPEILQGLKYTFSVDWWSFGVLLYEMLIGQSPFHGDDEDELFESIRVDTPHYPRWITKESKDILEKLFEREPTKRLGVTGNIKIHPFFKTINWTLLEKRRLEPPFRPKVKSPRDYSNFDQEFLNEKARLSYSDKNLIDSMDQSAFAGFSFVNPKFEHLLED

[33] = biological target: Protein kinase C epsilon type (Homo sapiens) (UniProt Q02156); assay: Inhibition of PRKCE assessed as enzyme activity at 1 uM relative to untreated control; parameters: scale not given: the % may be the effect or the level left
[34] = biological target: Serine/threonine-protein kinase 35 (Homo sapiens) (UniProt Q8TDR2); assay: Inhibition of STK35 assessed as enzyme activity at 1 uM relative to untreated control; parameters: scale not given: the % may be the effect or the level left
Sequence of Serine/threonine-protein kinase 35 (Homo sapiens) (Q8TDR2 whole entry): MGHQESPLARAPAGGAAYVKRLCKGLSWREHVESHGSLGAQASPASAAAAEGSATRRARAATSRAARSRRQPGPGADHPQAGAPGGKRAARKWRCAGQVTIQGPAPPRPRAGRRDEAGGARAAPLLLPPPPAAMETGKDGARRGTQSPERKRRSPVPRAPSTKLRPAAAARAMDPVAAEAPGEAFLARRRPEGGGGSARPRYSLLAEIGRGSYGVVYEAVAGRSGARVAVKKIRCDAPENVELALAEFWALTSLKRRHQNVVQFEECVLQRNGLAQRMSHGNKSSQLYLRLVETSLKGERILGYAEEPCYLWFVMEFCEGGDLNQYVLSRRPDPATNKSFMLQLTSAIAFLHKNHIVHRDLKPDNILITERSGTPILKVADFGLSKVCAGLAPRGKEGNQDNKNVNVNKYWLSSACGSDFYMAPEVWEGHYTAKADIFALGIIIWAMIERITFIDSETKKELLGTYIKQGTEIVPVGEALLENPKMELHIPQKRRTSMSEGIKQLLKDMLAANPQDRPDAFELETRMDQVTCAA

[35] = biological target: Testis-specific serine/threonine-protein kinase 1 (Homo sapiens) (UniProt Q9BXA7); assay: Inhibition of TSSK1 assessed as enzyme activity at 1 uM relative to untreated control; parameters: scale not given: the % may be the effect or the level left
[36] = biological target: Tyrosine-protein kinase TXK (Homo sapiens) (UniProt P42681); assay: Inhibition of TXK assessed as enzyme activity at 1 uM relative to untreated control; parameters: scale not given: the % may be the effect or the level left
[37] = biological target: Tyrosine-protein kinase ZAP-70 (Homo sapiens) (UniProt P43403); assay: Inhibition of ZAP70 assessed as enzyme activity at 1 uM relative to untreated control; parameters: scale not given: the % may be the effect or the level left

Cc1ccc2c(Nc3ccc(Cl)cc3)nccc2c1Nc1ncccc1-c1ncnc2[nH]cnc12.Cl.Cl.Cl
bioavailability [1]: 79% | half-life [2]: 3.5 h | Activity [3]: 80% | Activity [4]: 100% | Activity [5]: 100% | Activity [6]: 28% | Activity [7]: 77% | Activity [8]: 100% | Activity [9]: 95% | Activity [10]: 100% | Activity [11]: 75% | Activity [12]: 87% | Activity [13]: 100% | Activity [14]: 95% | Activity [15]: 65% | Activity [16]: 96% | Activity [17]: 92% | Activity [18]: 77% | Activity [19]: 92% | Activity [20]: 100% | Activity [21]: 92% | Activity [22]: 75% | Activity [23]: 17% | Activity [24]: 100% | Activity [25]: 86% | Activity [26]: 78% | Activity [27]: 47% | Activity [28]: 90% | Activity [29]: 92% | Activity [30]: 100% | ED50 (A-375): 1.3 mg/kg | AUC at 24 h [31]: 2730 ng·h/mL | Activity [32]: 88% | Activity [33]: 100% | Activity [34]: 92% | Activity [35]: 71% | Activity [36]: 100% | Activity [37]: 100%
